Laboratory results reported in publication PMC6218659, “Structures of DPAGT1 Explain Glycosylation Disease Mechanisms and Advance TB Antibiotic Design” (Cell, 2018).
Converted amounts (≈) assume the structure as drawn. Like-named read-outs stand apart in the source and are kept apart here.

Tests used:
DPAGT1 = target: T1, DPAGT1 (Homo sapiens, UniProt Q9H3H5); test: Radiolabeled substrate enzyme activity assay; type: biochemical, H. sapiens; conditions: for effect on DPAGT1 catalytic activity: purified DPAGT1 enzyme, Figure 6F
T1 construct: H. sapiens DPAGT1 (1-408, N-terminal 6 x HIS tag, TEV cleavage site); 6xHis purification tag with TEV site (N, cleaved yes); made in house; host or cells: Spodoptera frugiperda Sf9 insect cells (baculovirus)
T1 sequence (Q9H3H5 1-408): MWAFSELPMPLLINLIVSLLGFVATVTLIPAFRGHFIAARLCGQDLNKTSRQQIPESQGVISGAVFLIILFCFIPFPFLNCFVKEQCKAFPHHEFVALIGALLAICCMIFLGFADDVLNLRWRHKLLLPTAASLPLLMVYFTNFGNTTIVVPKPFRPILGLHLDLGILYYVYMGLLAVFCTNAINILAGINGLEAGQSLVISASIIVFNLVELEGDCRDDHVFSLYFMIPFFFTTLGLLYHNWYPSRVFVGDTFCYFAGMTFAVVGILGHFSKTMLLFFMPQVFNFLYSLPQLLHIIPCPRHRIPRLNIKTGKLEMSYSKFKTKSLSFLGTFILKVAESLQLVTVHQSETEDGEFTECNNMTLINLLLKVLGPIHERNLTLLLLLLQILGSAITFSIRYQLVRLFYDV
Experimental: 2 μl of 2 μM DPAGT1 WT or mutant proteins in GFB buffer supplemented with 5mM extra MgCl2, 1% OGNG/CHS/cardiolipin and dolichyl monophosphate was combined with 2 μl of UDP-N-acetyl [1-14C] […] The reaction was terminated by the addition of 6 μl of 100% methanol and immediately transferred onto ice. 1 μl of sample was spotted onto a silica coated TLC plate in triplicate and run with a mobile phase consisting of chloroform, methanol, and water at a 65:25:4 ratio respectively. After the run, the TLC plate was dried thoroughly, wrapped in cling film, incubated with a phosphor imaging substrate for 4 days, then phosphor imaged using a Biorad. The pixel density of the spots corresponding to the hydrophobic product was divided by combined pixel density of the product and the substrate and multiplied by the known concentration of substrate added to ascertain the amount of product formed.

B. cereus ATCC11778 = test: Micro-broth dilution and drop plate antimicrobial susceptibility test; type: cell-based, Bacillus cereus
Experimental: (§1) In a sterile 96-well plate, serial dilutions were made with the test substance to final volume of 50 μl. Inoculum was then prepared in Mueller-Hinton broth to 0.5 McFarland and diluted before adding 50 μl to the well to make ∼1x10^5 CFU/ml. The culture plate was incubated at 35 °C for 20-24 hrs. A positive growth control and sterility wells were also prepared along with the culture wells. Absorbance at OD600 was taken using BMG Labtech SPECTROstar Omega spectrophotometer. MIC is determined by the lowest concentration without growth. IC50 is determined from plotting a dose-response curve, see Data Analysis below. To determine the MBC, using a multi-channel pipette, 1 μl of culture broth was taken from the same 96-well microdilution growth plate and carefully inoculated on surface of MH agar plate. The plate is then incubated for additional 20 hrs. at 35 °C. The MBC value is the lowest concentration without observed growth on the agar.

E. coli ATCC25922 = test: as above; type: cell-based; conditions: Escherichia coli
Experimental: as §1

S. aureus ATCC29219 = test: as above; type: cell-based; conditions: Staphylococcus aureus
Experimental: as §1

P. aeruginosa ATCC27853 = test: as above; type: cell-based; conditions: Pseudomonas aeruginosa
Experimental: as §1

B. subtilis EC1524 = test: as above; type: cell-based, Bacillus subtilis
Experimental: as §1

[1] = system: Mtb-infected J774A.1 macrophages; test: Efficacy against Mtb growing in infected macrophages; conditions: J774A.1 macrophages treated 3 or 7 days
Mtb H37Rv ATCC27294 = test: Minimum inhibitory concentrations testing against Mtb; type: cell-based, Mycobacterium tuberculosis; conditions: for MIC: Mycobacterium tuberculosis, 168 h
HepG2 cells = test: Cell proliferation assay (MTS); type: cell-based, human
Experimental: (§2) In sterile 96-well plate, each well was seeded with ∼1x10^5 cells. The cells are then grown confluent overnight in 100 μl DMEM with 10% FBS. The medium is replenished with DMEM with 2% FBS and added vehicle control or test substance the next day. For test substance in methanol, stock was added to 25 μl of DMEM with 2% FBS or PBS and placed in the laminar flow hood to let the methanol evaporate (about 1-3 hrs). Once the methanol has evaporated, DMEM with 2% FBS was added to final volume of 100 μl of desired test concentration. […] Cells are grown for additional 24 hrs. The cell viability was determined by using Promega CellTiter 96^© AQueous One Solution Cell Proliferation Assay (3-(4,5-dimethylthiazol-2-yl)-5-(3-carboxymethoxyphenyl)-2-(4-sulfophenyl)-2H-tetrazolium, inner salt; MTS) System following the manufacture protocol.

HEK293 cells = test: Cell proliferation assay (MTS); type: cell-based, human
Experimental: as §2

Raji cells = test: Cell proliferation assay (MTS); type: cell-based, human; conditions: 24 hrs
Experimental: as §2

[2] = minimal lethal dose / MIC, 800 μg mL-1 used for >400
[3] = MTS cell proliferation assay, 24 hrs, highest concentration 400 µg mL-1
[4] = serial 2-fold dilutions (Table S6)

**Q.** How did the “effect on DPAGT1 catalytic activity” value (DPAGT1) turn out when `CCCCCCCC(=O)N[C@H]1[C@H](O[C@H]2O[C@H](CO)[C@@H](O)[C@H](O)[C@H]2NC(C)=O)O[C@H](C[C@@H](O)[C@H]2O[C@@H](n3ccc(=O)[nH]c3=O)[C@H](O)[C@@H]2O)[C@H](O)[C@@H]1O` [TUN-8,Ac, N-Octanoyl-N’-acetyl tunicamycin] was run?
**A.** restored inhibitory activity

**Q.** How did the IC50 (B. cereus ATCC11778; Bacillus cereus, ATCC11778) turn out when `CCCCCCCCC(=O)N[C@H]1[C@H](O[C@H]2O[C@H](CO)[C@@H](O)[C@H](O)[C@H]2NC(=O)CCCCCCCC)O[C@H](C[C@@H](O)[C@H]2O[C@@H](n3ccc(=O)[nH]c3=O)[C@H](O)[C@@H]2O)[C@H](O)[C@@H]1O` [TUN-9,9, Di-N-nonanoyl-tunicamycin] was run?
**A.** 0.072 µg/mL (≈ 0.085 µM)

**Q.** What about the MBC (B. cereus ATCC11778; Bacillus cereus, ATCC11778) of the same compound?
**A.** > 25 µg/mL

**Q.** And the MIC (B. cereus ATCC11778; Bacillus cereus, ATCC11778)?
**A.** 0.65 ± 0.23 µg/mL (≈ 0.767 µM)

**Q.** What about the MIC (B. cereus ATCC11778; Bacillus cereus, ATCC 11778 / NRRL11778, read-out: Minimal Inhibitory Concentration, B. cereus NRRL 11778) of the same compound?
**A.** 0.78 µg/mL (≈ 0.921 µM)

**Q.** And the “Relative Therapeutic Index (RTI), B. cereus NRRL 11778” value (B. cereus ATCC11778; [2])?
**A.** 1026

**Q.** And the IC50 (E. coli ATCC25922)?
**A.** 87.1 µg/mL (≈ 103 µM)

**Q.** And the MBC (E. coli ATCC25922)?
**A.** 400 µg/mL (≈ 472 µM)

**Q.** And the MIC (E. coli ATCC25922)?
**A.** 330 ± 120 µg/mL (≈ 390 µM)

**Q.** What about the IC50 (S. aureus ATCC29219) of the same compound?
**A.** 48.9 µg/mL (≈ 57.8 µM)

**Q.** What about the MBC (S. aureus ATCC29219) of the same compound?
**A.** 400 µg/mL (≈ 472 µM)

**Q.** And the MIC (S. aureus ATCC29219)?
**A.** 83 ± 29 µg/mL (≈ 98 µM)

**Q.** What about the IC50 (P. aeruginosa ATCC27853) of the same compound?
**A.** 55 µg/mL (≈ 64.9 µM)

**Q.** And the MBC (P. aeruginosa ATCC27853)?
**A.** 400 µg/mL (≈ 472 µM)

**Q.** What about the MIC (P. aeruginosa ATCC27853) of the same compound?
**A.** 83 ± 29 µg/mL (≈ 98 µM)

**Q.** What about the “effect on DPAGT1 catalytic activity” value (DPAGT1) of the same compound?
**A.** negligible effect

**Q.** And the MIC (B. subtilis EC1524; B. subtilis, micro-broth dilution, mean ± SEM (n=3))?
**A.** 0.02 ± 0.01 µg/mL (≈ 0.0236 µM)

**Q.** What about the IC50 (B. subtilis EC1524; Bacillus subtilis, EC1524) of the same compound?
**A.** 0.015 µg/mL (≈ 0.0177 µM)

**Q.** And the MBC (B. subtilis EC1524; Bacillus subtilis, EC1524)?
**A.** > 0.05 µg/mL

**Q.** And the MIC (B. subtilis EC1524; Bacillus subtilis, EC1524)?
**A.** 0.02 ± 0.01 µg/mL (≈ 0.0236 µM)

**Q.** What about the MIC (B. subtilis EC1524; Bacillus subtilis, EC1524, read-out: Minimal Inhibitory Concentration, B. subtilis EC1524) of the same compound?
**A.** 0.024 µg/mL (≈ 0.0283 µM)

**Q.** And the “Relative Therapeutic Index (RTI), B. subtilis EC1524” value (B. subtilis EC1524; [2])?
**A.** 33300

**Q.** What about the “reduction of intracellular bacterial burdens” value ([1]; 1 × MIC) of the same compound?
**A.** 1 logs

**Q.** What about the “reduction of intracellular bacterial burdens” value ([1]; 10 × MIC) of the same compound?
**A.** 2 logs

**Q.** What about the “1-week MIC in GAST/Fe” value (Mtb H37Rv ATCC27294; Mtb H37Rv, minimal growth medium) of the same compound?
**A.** 0.03 ± 0.001 µg/mL

**Q.** And the “potency (MIC) relative to tunicamycin” value (Mtb H37Rv ATCC27294; Mtb H37Rv, more potent than tunicamycin)?
**A.** ~5 fold

**Q.** What about the MIC (Mtb H37Rv ATCC27294; read-out: 1-week MIC in 7H9/ADC/Tw) of the same compound?
**A.** 0.2 ± 0.02 µg/mL (≈ 0.236 µM)

**Q.** And the MIC (Mtb H37Rv ATCC27294; read-out: 1-week MIC in GAST/Fe)?
**A.** 0.03 ± 0.001 µg/mL (≈ 0.0354 µM)

**Q.** What about the MIC (Mtb H37Rv ATCC27294; read-out: Minimal Inhibitory Concentration, Mtb H37RV a) of the same compound?
**A.** 0.2 µg/mL (≈ 0.236 µM)

**Q.** And the MIC (Mtb H37Rv ATCC27294; read-out: Minimal Inhibitory Concentration, Mtb H37RV b)?
**A.** 0.03 µg/mL (≈ 0.0354 µM)

**Q.** What about the “Relative Therapeutic Index (RTI), Mtb H37RV a” value (Mtb H37Rv ATCC27294; minimal lethal dose / MIC, 7H9/ADC/Tw, 800 μg mL-1 used for >400) of the same compound?
**A.** 4000

**Q.** And the “Relative Therapeutic Index (RTI), Mtb H37RV b” value (Mtb H37Rv ATCC27294; minimal lethal dose / MIC, GAST/Fe, 800 μg mL-1 used for >400)?
**A.** 27000

**Q.** What about the “LD50 values, HepG2” value (HepG2 cells; [3]) of the same compound?
**A.** N/A (N/A = not available. No or low cytotoxicity observed at highest, saturating concentration tested (400 µg mL-1))

**Q.** What about the “Minimal Lethal Dose, HepG2” value (HepG2 cells; [4]) of the same compound?
**A.** > 400 µg/mL

**Q.** What about the “LD50 values, HEK293” value (HEK293 cells; [3]) of the same compound?
**A.** N/A (N/A = not available. No or low cytotoxicity observed at highest, saturating concentration tested (400 µg mL-1))

**Q.** And the “Minimal Lethal Dose, HEK 293” value (HEK293 cells; [4])?
**A.** > 400 µg/mL

**Q.** And the “LD50 values, Raji” value (Raji cells)?
**A.** 355.57 ± 194.57 µg/mL

**Q.** “N-Acetyl-1-[P’-(3Z,7Z,11Z,15Z,19Z,23Z,27Z,31E,35E,39E,43-undecamethyl-2,6,10,14,18,22,26,30,34,38,42-tetratetracontaundecaenyl) P,P'-dihydrogen diphosphate]-α-d-glucosamine diammonium salt [GlcNAc-PP-Und]” was tested. Which “reduction of DPAGT1 activity on adding product analogue” value (DPAGT1; equimolar to Dol-P and UDP-GlcNAc) did it give?
**A.** 3 fold
